Experimental data: patent US11266649B2, “Pharmaceutical formulations” (Corvus Pharmaceuticals, Inc., priority 2018, dated 2022)

Tests used:
[1] = Storage stability: Total Impurities by stability-indicating HPLC; type: physicochemical; details: API (Formula (III)) itself, reference
[2] = Particle size distribution by laser diffraction, before and after jet-mill micronization; type: physicochemical
Protocol: “Particle size distribution” or “PSD” or “size distribution” refers to the size of particles present in their relative proportions in a sample, as measured by laser diffraction spectroscopy. In aspects, the particle size distribution refers to the particle size distribution of all the drug particles in the composition. The particle size distribution of a sample is measured by laser diffraction spectroscopy. Laser diffraction spectrometers are commercially available as, e.g., MASTERSIZER® 3000 from Malvern Instruments Ltd, and HORIBA® LA-950 by Horiba Instruments, Inc., Irvine Calif. For laser diffraction spectroscopy, particle size distribution is generally described by D values, such as D90. In aspects, the laser diffraction spectroscopy can be analyzed by the Fraunhofer theory. In aspects, the laser diffraction spectroscopy can be analyzed by the Mie scattering theory. In aspects, the laser diffraction spectroscopy can be analyzed by a combination of the Fraunhofer theory and the Mie scattering theory.
Formulation (III) was micronized using a Sturtevant SDM jet mill with a 2 inch diameter loop. The process parameters were: inlet air pressure 120 psi; grind chamber 100 psi; nozzle air pressure 80 psi; manual fee rate.
Formulation (III) was micronized using a Sturtevant SDM jet mill with a 4 inch diameter loop. The process parameters were: inlet air pressure 120 psi; grind chamber 100 psi; nozzle air pressure 80 psi; manual fee rate.

[3] = 1 pass micronization, jet mill 2 inch diameter loop
[4] = 1 pass micronization, jet mill 4 inch diameter loop
[5] = 2 pass micronization, jet mill 4 inch diameter loop
[6] = Before micronization, Table 1A, jet mill 2 inch diameter loop
[7] = Before micronization, Table 1B, jet mill 4 inch diameter loop

Cc1ccc(-c2nc(N)nc3c2nnn3Cc2cccc(COC3CCOC3)n2)o1 (centres unmarked) [Formula (III)]
Total Impurities [1]: 0.80%
Total Impurities ([1]; listed as API): 0.80%
D10 [2, 3]: 0.9 microns
D50 [2, 3]: 3.3 microns
D90 [2, 3]: 8.2 microns
D10 [2, 4]: 1.1 microns
D50 [2, 4]: 4.3 microns
D90 [2, 4]: 20.2 microns
D10 [2, 5]: 0.9 microns
D50 [2, 5]: 3.1 microns
D90 [2, 5]: 8.3 microns
D10 [2, 6]: 2.3 microns
D50 [2, 6]: 8.6 microns
D90 [2, 6]: 31.1 microns
D10 [2, 7]: 2.3 microns
D50 [2, 7]: 8.6 microns
D90 [2, 7]: 31.1 microns
